# Laboratory results taken from article PMC9465256, “Discovering monoacylglycerol lipase inhibitors by a combination of fluorogenic substrate assay and activity-based protein profiling” (Frontiers in Pharmacology, 2022).
# Where a name gives a salt, the structure may show the parent alone.
# How the values were obtained:
# Assay type in all cases: biochemical
# human MAGL = biological target: T1, human MAGL (Homo sapiens, UniProt Q99685); test: MAGL activity assay (AA-HNA fluorogenic substrate); conditions: 100 µM, AA-HNA substrate assay, Supplementary Table 1, read-out: MAGL Inhibition (%)
# T1 construct: expressed in transfected cells; host or cells: HEK293T (transient transfection; membrane fraction)
# T1 sequence (Q99685 1-303): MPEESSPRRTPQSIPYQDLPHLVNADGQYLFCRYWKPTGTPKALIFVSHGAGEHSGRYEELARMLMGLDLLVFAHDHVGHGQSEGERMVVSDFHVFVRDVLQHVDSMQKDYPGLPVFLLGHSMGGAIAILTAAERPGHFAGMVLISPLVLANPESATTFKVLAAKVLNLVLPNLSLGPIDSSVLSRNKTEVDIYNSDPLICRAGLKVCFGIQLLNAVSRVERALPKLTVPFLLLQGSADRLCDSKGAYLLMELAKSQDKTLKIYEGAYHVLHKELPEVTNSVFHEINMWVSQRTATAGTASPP
# Experimental: (§1) HEK293T cells were cultured at 37°C under 5% CO2 in a DMEM medium with stable glutamine and phenolred, containing 10% fetal bovine serum (FBS, Gibco), penicillin, and streptomycin. The cells were passaged every 2–3 days by resuspension in the medium at ∼90% confluence. The membranes used in this study were prepared from transiently transfected HEK293T cells. Briefly, 1 day prior to transfection, ∼10^7 cells were seeded in 15 cm plates, and then the cells were transfected by the addition of a mixture of polyethyleneimine and plasmid DNA (3:1, 60, and 20 µg) in 2 ml of medium (without serum). Of note, the empty pcDNA3.1 vector was used in the Mock-control. After 24 h, the medium was removed and the cells were refreshed with fresh medium. After 72 h, the cells were harvested by suspending in 20 ml of medium, and the supernatant was removed by centrifugation for 10 min at 1,000 rpm. The cell pellet was flash frozen in liquid nitrogen and stored at −80°C until use. Subsequently, the cell pellets were suspended in lysis buffer (30 mM Tirs, pH 7.5, 1 mM MgCl2, 25 U/ml Benzonase), which was homogenized by sonication (3 × 10 bursts) and incubated for 30 min on ice. The membrane fractions overexpressing MAGL/ABHD6/ABHD12 were separated by ultracentrifuge (100,000 g, 30 min, 4 C). The protein concentration was determined with a Qubit protein assay (Invitrogen). The protein samples were quickly frozen in liquid nitrogen and stored at −80 C until use.
# The MAGL activity assay is based on the hydrolysis of 2-arachidonoylglycerol-based fluorogenic substrate by MAGL-overexpressing membrane preparations from transiently transfected HEK293T cells. In brief, the reactions were performed in HEPES buffer (40 mM HEPES, pH 7.5, 0.1 mg/ml BSA) in black, flat bottom 96-well plates. […] After the incubation of the inhibitor-protein complex for 30 min, 10 µl of the fluorogenic substrate (AA-HNA, 200 µM) was added and fluorescence was measured in 1 min intervals for 30 min on a plate reader (BioTek). […] All the measurements were performed in N = 2, n = 2 for inhibitors and N = 2, n = 4 for controls with Z′ value ≥0.6. The slope is determined in 5–15 min for all the experiments.
# human ABHD6 = biological target: T2, human ABHD6 (Homo sapiens, UniProt Q9BV23); test: ABHD6 activity assay (AA-HNA fluorogenic substrate)
# T2 construct: expressed in transfected cells; host or cells: HEK293T (transient transfection; membrane fraction)
# T2 sequence (Q9BV23 1-337): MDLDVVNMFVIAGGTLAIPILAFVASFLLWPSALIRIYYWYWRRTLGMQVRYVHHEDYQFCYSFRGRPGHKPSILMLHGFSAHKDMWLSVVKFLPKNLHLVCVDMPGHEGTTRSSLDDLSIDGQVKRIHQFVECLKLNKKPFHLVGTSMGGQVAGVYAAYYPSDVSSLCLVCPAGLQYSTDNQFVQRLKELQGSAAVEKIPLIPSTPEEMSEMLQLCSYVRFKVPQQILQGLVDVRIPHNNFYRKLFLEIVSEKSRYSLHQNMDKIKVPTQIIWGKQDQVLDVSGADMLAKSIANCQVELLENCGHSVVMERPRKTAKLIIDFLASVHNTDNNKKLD
# Experimental: as §1
# The MAGL activity assay is based on the hydrolysis of 2-arachidonoylglycerol-based fluorogenic substrate by MAGL-overexpressing membrane preparations from transiently transfected HEK293T cells. In brief, the reactions were performed in HEPES buffer (40 mM HEPES, pH 7.5, 0.1 mg/ml BSA) in black, flat bottom 96-well plates. The final protein concentration of membrane fractions from overexpressing human MAGL HEK293T cells was 12.5 μg/ml 5 µl of inhibitors were added from×40 concentrated DMSO stocks in the 96-well plate containing 145 µl assay buffer, followed by the addition of 40 µl of the protein (12.5 μg/ml). After the incubation of the inhibitor-protein complex for 30 min, 10 µl of the fluorogenic substrate (AA-HNA, 200 µM) was added and fluorescence was measured in 1 min intervals for 30 min on a plate reader (BioTek). Final assay concentrations: 12.5 μg/ml MAGL, […], and […] in the total volume of 200 µl. All the measurements were performed in N = 2, n = 2 for inhibitors and N = 2, n = 4 for controls with Z′ value ≥0.6. The slope is determined in 5–15 min for all the experiments.
# The ABHD6 activity assay is based on the same principle as the MAGL activity assay described earlier, but with human ABHD6 overexpressing membrane preparations at a final protein concentration of 50 μg/ml and 200 µM AA-HNA. Other conditions are the same as those of the MAGL activity assay.
# human ABHD12 = biological target: T3, human ABHD12 (Homo sapiens, UniProt Q8N2K0); test: ABHD12 activity by competitive ABPP with FP-TAMRA; conditions: 100 µM compound, competitive ABPP with probe FP-TAMRA (250 nM), read-out: ABHD12 Inhibition (%)
# T3 construct: expressed in transfected cells; host or cells: HEK293T (transient transfection; membrane fraction)
# T3 sequence (Q8N2K0 1-398): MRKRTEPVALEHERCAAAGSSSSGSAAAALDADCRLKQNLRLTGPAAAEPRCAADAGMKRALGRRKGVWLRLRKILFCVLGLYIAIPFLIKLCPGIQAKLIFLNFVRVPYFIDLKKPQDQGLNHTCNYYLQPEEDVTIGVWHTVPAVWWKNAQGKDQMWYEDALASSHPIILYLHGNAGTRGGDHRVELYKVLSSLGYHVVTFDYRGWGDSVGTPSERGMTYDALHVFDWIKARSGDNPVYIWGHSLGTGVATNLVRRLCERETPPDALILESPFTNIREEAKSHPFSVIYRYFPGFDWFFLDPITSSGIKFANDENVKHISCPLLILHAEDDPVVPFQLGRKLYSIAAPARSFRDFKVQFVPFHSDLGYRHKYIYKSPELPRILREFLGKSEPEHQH
# Experimental: as §1
# The ABHD12 activity assay is based on competitive activity-based protein profiling (ABPP) with human ABHD12 overexpressing membrane fractions. Briefly, the membrane proteome (1 mg/ml, 20 µl) was incubated at room temperature with 0.5 µl DMSO (vehicle) or inhibitor for 30 min. Subsequently, the samples were treated with the activity-based probe FP-TAMRA (250 nM, final concentration) for 20 min. The reactions were then quenched by 10 µl sample buffer (×4) (final concentrations: 60 mM Tris, pH 6.8, 2% (w/v) SDS, 10% (v/v) glycerol, 5% (v/v) β-mercaptoethanol, 0.01% (v/v) bromophenol blue). The samples were directly loaded and resolved on SDS-PAGE gel (10% acrylamide), which were then scanned using a ChemiDoc MP system (Cy3 settings, BioRad).
# [1] = 100 µM, AA-HNA substrate assay, Supplementary Table 2, read-out: ABHD6 Inhibition (%)
molecule,measurement,setting,value
"OCc1c[nH]c2ccccc12 [compound 42, Ndole-3-carbinol]",activity,human MAGL,70.6%
same,activity,human ABHD6; [1],101%
same,activity,human ABHD12,80.9%
"O=C(O)c1cc(=O)[nH]c(=O)[nH]1 [compound 61, Orotic acid]",activity at 100 µM,human MAGL,101%
same,activity at 100 µM,human ABHD6; [1],113%
same,activity at 100 µM,human ABHD12,97.2%
"COc1ccc2ccc(=O)oc2c1CC=C(C)C [compound 62, Osthole]",activity at 100 µM,human MAGL,94.5%
same,activity at 100 µM,human ABHD6; [1],112%
same,activity at 100 µM,human ABHD12,106%
"O=c1c(-c2ccc(O)cc2)coc2c([C@@H]3O[C@H](CO)[C@@H](O)[C@H](O)[C@H]3O)c(O)ccc12 [compound 69, Puerarin]",activity at 100 µM,human MAGL,94.8%
same,activity at 100 µM,human ABHD6; [1],119%
same,activity at 100 µM,human ABHD12,104%
"COc1c(O)cc2c(c1O)[C@@H]1O[C@H](CO)[C@@H](O)[C@H](O)[C@H]1OC2=O [compound 16, Bergenin]",activity at 100 µM,human MAGL,124%
same,activity at 100 µM,human ABHD6; [1],110%
same,activity at 100 µM,human ABHD12,88%
"O=C1CCC[C@@H]2[C@H]3CCCN4CCC[C@@H](CN12)[C@@H]34 [compound 49, (+)-Matrine]",activity,human MAGL,85.4%
same,activity,human ABHD6; [1],98.3%
same,activity,human ABHD12,84.4%
"Cc1cc(=O)oc2cc(O)ccc12 [compound 5, 4-Methylumbelliferone]",activity at 100 µM,human MAGL,90.1%
same,activity at 100 µM,human ABHD6; [1],92.5%
same,activity at 100 µM,human ABHD12,71%
"COc1ccc(-c2coc3cc(O)ccc3c2=O)cc1 [compound 31, Formononetin]",activity at 100 µM,human MAGL,103%
same,activity at 100 µM,human ABHD6; [1],94.1%
same,activity at 100 µM,human ABHD12,77.5%
"O=C(c1cccc(-c2ccc(-c3cn(C(=O)N4CCCCC4c4ccccc4)nn3)cc2)c1)N1CCCCC1 (stereo not shown) [KT185, reference compound]",effect on fluorescent signal of AA-HNA hydrolysis by ABHD6,human ABHD6; 10 µM,blocked
Myricitrin [compound 53],percent inhibition,human MAGL,93.1%
same,percent inhibition of ABHD6,"human ABHD6; read-out: ABHD6 Inhibition (%), 100 µM, AA-HNA substrate assay, Supplementary Table 2",105%
same,percent inhibition,human ABHD12,70%
"O=c1cc(-c2ccccc2)oc2cc(O)c(O)c(O)c12 [compound 14, Baicalein]",activity at 100 µM,human MAGL,64.3%
same,activity at 100 µM,human ABHD6; [1],131%
same,activity at 100 µM,human ABHD12,82.7%
"CC(=O)c1c(O)c(C)c(O)c2c1OC1=CC(=O)C(C(C)=O)C(=O)C12C [compound 3, D-Usnic Acid]",activity,human MAGL,85.6%
same,activity,human ABHD6; [1],97.9%
same,activity,human ABHD12,68.8%
"O=C1CCC[C@@H]2[C@H]3CCC[N+]4([O-])CCC[C@@H](CN12)[C@@H]34 (stereo partly shown) [compound 63, Oxymatrine]",activity at 100 µM,human MAGL,99.9%
same,activity at 100 µM,human ABHD6; [1],102%
same,activity at 100 µM,human ABHD12,91.3%
"C[N+](C)(C)CC(O)CC(=O)O (racemic) [compound 27, DL-Carnitine HCl]",activity,human MAGL,97.6%
same,activity,human ABHD6; [1],88.9%
same,activity,human ABHD12,76.6%
"O=c1c(O)c(-c2ccc(O)cc2)oc2cc(O)cc(O)c12 [compound 43, Kaempferol]",activity at 100 µM,human MAGL,32.2%
same,activity at 100 µM,human ABHD6; [1],84.3%
same,activity at 100 µM,human ABHD12,30.2%
"COc1cc(/C=C/C(=O)O)ccc1O [compound 32, Ferulic Acid]",activity,human MAGL,104%
same,activity,human ABHD6; [1],92.4%
same,activity,human ABHD12,80.8%
"O=C(O)CCCc1c[nH]c2ccccc12 [compound 4, 3-Indolebutyric acid]",activity at 100 µM,human MAGL,85.4%
same,activity at 100 µM,human ABHD6; [1],97.2%
same,activity at 100 µM,human ABHD12,77.2%
"COc1ccc([C@@H]2CC(=O)c3c(O)cc(O[C@@H]4O[C@H](CO)[C@@H](O)[C@H](O)[C@H]4O[C@@H]4O[C@@H](C)[C@H](O)[C@@H](O)[C@H]4O)cc3O2)cc1O [compound 57, Neohesperidin]",activity,human MAGL,86.8%
same,activity,human ABHD6; [1],98.7%
same,activity,human ABHD12,75.6%
"COc1ccc([C@@H]2CC(=O)c3c(O)cc(O[C@@H]4O[C@H](CO[C@@H]5O[C@@H](C)[C@H](O)[C@@H](O)[C@H]5O)[C@@H](O)[C@H](O)[C@H]4O)cc3O2)cc1O [compound 38, Hesperidin]",activity,human MAGL,91.4%
same,activity,human ABHD6; [1],94.3%
same,activity,human ABHD12,76.6%
"O=c1c(O)c(-c2ccc(O)c(O)c2)oc2cc(O)ccc12 [compound 29, Fisetin]",activity at 100 µM,human MAGL,76.2%
same,activity at 100 µM,human ABHD6; [1],82.4%
same,activity at 100 µM,human ABHD12,51.9%
"C[C@H](CCC(=O)O)[C@H]1CC[C@H]2[C@@H]3C[C@H](O)[C@@H]4C[C@H](O)CC[C@]4(C)[C@H]3CC[C@]12C [compound 40, Hyodeoxycholic]",activity,human MAGL,97%
same,activity,human ABHD6; [1],95.4%
same,activity,human ABHD12,70.8%
"OC[C@H]1O[C@@H](Oc2ccc(O)cc2)[C@H](O)[C@@H](O)[C@@H]1O [compound 10, Arbutin]",activity at 100 µM,human MAGL,84.2%
same,activity at 100 µM,human ABHD6; [1],83.2%
same,activity at 100 µM,human ABHD12,66.6%
"C=C1C(=O)[C@]23[C@H](O)[C@H]1CC[C@H]2[C@@]12CO[C@]3(O)[C@@H](O)[C@@H]1C(C)(C)CC[C@@H]2O [compound 60, Oridonin]",activity at 100 µM,human MAGL,59.6%
same,activity at 100 µM,human ABHD6; [1],102%
same,activity at 100 µM,human ABHD12,74.6%
"CN(C)Cc1c[nH]c2ccccc12 [compound 35, Gramine]",activity at 100 µM,human MAGL,97.3%
same,activity at 100 µM,human ABHD6; [1],99%
same,activity at 100 µM,human ABHD12,82.7%
